Structures can show the parent of a compound that is named as a salt. Blank lines part the entries; values can stand above or below the molecule they belong to.
What was measured:
[1] = Elution/release of anaesthetic from DePuy bone cement discs (Example 2); assay type: physicochemical; details: for anaesthetic released over 72 hours, percentage of amount incorporated / anaesthetic released after 72 h, percentage of amount incorporated: discs in 0.2% saline, 37° C.; for effect of particle size on release profile: crystals 75 to 150 um, 150 to 250 um, >250 um, 72 hours
Description: Crystalline lidocaine base from three manufacturers (Sigma, Spectrum, and Wyckoff) was used in these studies. It was observed that the relative proportions of crystals of different size varied substantially among the three brands. Thus, an initial study compared the effect of crystal size on elution and release characteristics using Spectrum lidocaine base. Crystals were sorted using a series of molecular sieves into three groups (small, 75 to 150 um; medium, 150 to 250 um; and large, >250 um) and 2.0 g samples from each group were incorporated into bone cement and tested, as indicated below.
All studies adhered to the following procedure: Forty grams of bone cement (DePuy CMW3 unless otherwise specified) were mixed with 2.0, 0.5, 0.05, or 0.005 g of liquid or crystalline anaesthetic (lidocaine: Sigma, Spectrum, Wyckoff; prilocaine: Colour Your Enzyme, Queen's University, Kingston, Ontario, Canada). The polymerization initiated mixtures were formed into discs 50 mm×1 mm and allowed to cure. The cured discs were then placed in a solution (100 ml) containing 0.2% saline, and kept at 37° C. in a shaking water bath. 1 ml aliquots were taken at 0, 1, 2, 3, 4, 6, 24, 48 and 72 hours and to each was added 1 μg/ml bupivacaine as an internal standard. 50 μl aliquots were subjected to HPLC using a Beckman reverse phase column having a mobile phase of 40 mM ammonium phosphate:acetonitrile (60:40) and a flow rate of 1 ml/min, followed by electrochemical detection, to determine the amount of anaesthetic in each sample.
The percentage of anaesthetic released was calculated from the mass of the bone cement/anaesthetic mixture: anaesthetic (e.g., 0.05 g)+bone cement powder (40 g)+bone cement liquid (17.9 g)=57.95 g. The mean mass of bone cement discs in an individual experiment was, for example, 3.75 g, which corresponds to 15.45 discs per mixture. For elution of, for example, 1000 ug after 72 hours, 1000 ug×15.45 discs=0.015 g anaesthetic released. Since 0.05 g anaesthetic was used, 30.9% was released.

[2] = lidocaine added to CMW3 vs CMW3
Method: Lidocaine (Xylocaine, Astra Pharmaceuticals) was combined with DePuy CMW3 bone cement as described in Example 1, and mechanical properties including dough time, setting time, exotherm, compressive strength, flexural strength, flexural modulus, and impact strength were analyzed.

[3] = Elution of lidocaine from bone cement discs (Example 1); assay type: physicochemical; details: Zimmer or DePuy cement, 0.2% saline, 37° C.
Method: Forty grams of bone cement powder from each of three manufacturers: Howmedica (Simplex), Zimmer (Osteobond) and DePuy (CMW3), were mixed with 0.5, 1.0 and 2.0 g of gas-sterilized crystalline lidocaine base (Xylocaine, Astra Pharmaceuticals). The polymerization initiated mixtures were formed into discs 50 mm×1 mm and allowed to harden. The hardened discs were then placed in a stirred solution (100 ml) containing 0.2% saline at 37° C. 100 μl aliquots were taken at 1, 2, 3, 4, 6, 24, 48 and 72 hours and subjected to HPLC with electrochemical detection analysis to determine the lidocaine level in each sample.

[4] = eluted from Howmedica bone cement; knee surgery of Example 3
[5] = 0.05 g anaesthetic per 40 g DePuy CMW3 bone cement, HCl
[6] = 2.0 g anaesthetic per 40 g DePuy CMW Endurance bone cement
[7] = 0.5, 1.0, 2.0 g per 40 g Howmedica

Compound: CCN(CC)CC(=O)Nc1c(C)cccc1C [crystalline lidocaine HCl, lidocaine HCl]
anaesthetic released over 72 hours, percentage of amount incorporated [1, 5]: about 25%
anaesthetic released over 72 hours, percentage of amount incorporated ([1]; 0.05 g anaesthetic per 40 g DePuy CMW3 bone cement, listed as lidocaine HCl, HCl): about 25%
anaesthetic released over 72 hours, percentage of amount incorporated ([1]; 0.5 g anaesthetic per 40 g DePuy CMW3 bone cement): about 33%
anaesthetic released after 72 h, percentage of amount incorporated ([1]; 0.5 g anaesthetic per 40 g DePuy CMW Endurance bone cement): 23%
effect of particle size on release profile ([1]; DePuy CMW3, HCl): Smaller particles eluted faster

Compound: CCN(CC)CC(=O)Nc1c(C)cccc1C [crystalline lidocaine base, lidocaine]
anaesthetic released over 72 hours, percentage of amount incorporated ([1]; 2.0 g anaesthetic per 40 g DePuy CMW3 bone cement): about 1%
anaesthetic released after 72 h, percentage of amount incorporated [1, 6]: about 0.3%
anaesthetic released over the 72 hour period, percentage of amount incorporated ([1]; 2.0 g sieved crystals, all size groups (75 to 150 um, 150 to 250 um, >250 um), DePuy CMW3): about 1%
effect of particle size on release profile ([1]; DePuy CMW3): no effect of particle size
effect on compressive strength, flexural strength or flexural modulus [2]: little effect
improvement of impact strength [2]: about 10%
increase of cement setting time [2]: about 40%
increase of doughing time, factor [2]: 3
amount eluted in relation to amount in the mixture [3, 7]: proportional to the amount of lidocaine in the mixture
period of maximum rate of elution [3, 7]: first 24 hours
time of peak dose in elution curve [3, 7]: ~6 h
period of sustained release ([3]; test period, Howmedica): 72 h
persistence of analgesic effect [4]: at least 24 hours
time from application of bone cement to analgesic effect [4]: ≤ 6 h

anaesthetic released after 72 h, percentage of amount incorporated [1, 6]: about 0.4%
Compound: CCCNC(C)C(=O)Nc1ccccc1C (centres unmarked) [crystalline prilocaine base, prilocaine]

Compound: CCN(CC)CC(=O)Nc1c(C)cccc1C [liquid lidocaine HCl, lidocaine HCl]
anaesthetic released over 72 hours, percentage of amount incorporated [1, 5]: 0.3%

anaesthetic released after 72 h, percentage of amount incorporated [1, 6]: about 0.3%
initial release of anaesthetic ([1]; 2.0 g in DePuy CMW3, compared with crystalline prilocaine base and both forms of lidocaine base (FIG. 4)): greatest
Compound: CCCNC(C)C(=O)Nc1ccccc1C (centres unmarked) [liquid prilocaine base, prilocaine]
